The values that follow come from PubChem BioAssay (NCI).

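Grown in 96-well plates, cells were treated for 48 hours with each compound at five concentrations. Insufficient inhibition: endpoint recorded as highest concentration tested. GI50 marks 50% less growth. TGI: total growth inhibition.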

Test in all cases: DTP human tumour cell line panel, 48 h
Assay [1] concerns SF-268 CNS.
Assay [2] concerns SK-MEL-2 melanoma.
Assay [3] concerns HOP-92 NSCLC.
Assay [4] relates to A498 renal.
For assay [5], the system named is HCT-116 colon.
Assay [6] concerns RXF 393 renal.
The test system of assay [7] is UACC-62 melanoma.
Assay [8] has as its system HS 578T breast.

A word on the TGI: it is the concentration at which net growth stops. Read a high TGI as less potent growth arrest. In general, GI50 refers to the concentration that inhibits growth by half.

As for `N=C(N)c1ccc2oc3ccc(C(=N)N)cc3c(=O)c2c1`, the TGI in assay [1], in assay [2], in assay [3], in assay [4], in assay [5] and in assay [6] was above 100 µM each time. For the same compound, in assay [7], the TGI was above 100 µM.
`COC1C(OC(=O)c2ccc(C)[nH]2)C(O)C(Oc2ccc3c(O)c(NC(=O)c4ccc(O)c(CC=C(C)C)c4)c(=O)oc3c2Cl)OC1(C)C` (centres undefined): the TGI is 57.4 µM in assay [1]; 61.9 µM in assay [8]; 27 µM in assay [2]; 33 µM in assay [4]; 33.1 µM in assay [5]; 32.9 µM in assay [7].
In the case of `CCN(CC)CCOC(COc1cc(C)cc(C)c1)COc1cc(C)cc(C)c1`, the GI50 in assay [1] is 4.26 µM; in assay [8], 4.22 µM; in assay [2] it was 11.6 µM; in assay [5], 3.31 µM; in assay [6], 2.06 µM; in assay [7] it was 1.74 µM. Besides, the TGI in assay [1] worked out at 17.6 µM; in assay [8] it was 16.7 µM; in assay [2], 25.8 µM; in assay [5] it was 14.9 µM; in assay [6] it was 5.07 µM; in assay [7], 4.61 µM.
Regarding `CC(C)(O)C1COC2=C1C(=O)c1ccccc1C2=O` (centres undefined), the TGI in assay [1] was 77.1 µM; in assay [8], above 100 µM; in assay [2], 88.6 µM; in assay [3], above 100 µM; in assay [4], above 100 µM; in assay [5] it was 66.9 µM. Also, the TGI in assay [7] turned out to be 42.9 µM.
`O=C(Nc1ccn(C2CC(O)C(COC(c3ccccc3)(c3ccccc3)c3ccccc3)O2)c(=O)n1)c1ccccc1` (centres undefined): the TGI amounted to 20 µM in assay [1]; 5.91 µM in assay [8]; 7.25 µM in assay [2]; 3.59 µM in assay [3]; 4.29 µM in assay [5]; 6.99 µM in assay [6]. This compound also displayed a TGI in assay [7] of 20 µM.
On to `CCc1ccc2c(c1)C(=O)c1c-2n(CCCN)c(=O)c2cc(OC)c(OC)cc12`, for which the results for the GI50 in assay [8], in assay [3] and in assay [7] were 2.07 µM, 1.33 µM and 1.8 µM, respectively. For the same compound, the TGI worked out at 3.78 µM in assay [8], 2.71 µM in assay [3] and 3.32 µM in assay [7].
`[Br][Pb]([c]1ccccc1)([c]1ccccc1)[c]1ccccc1`: the GI50 in assay [1] is 0.171 µM; in assay [2], 0.218 µM; in assay [4], 0.177 µM; in assay [5] it was 0.176 µM; in assay [6] it was 0.0916 µM; in assay [7], 0.186 µM. Besides, the TGI is 0.35 µM in assay [1]; 0.539 µM in assay [2]; 0.4 µM in assay [4]; 0.352 µM in assay [5]; 0.231 µM in assay [6]; 0.428 µM in assay [7].
For the compound `CC1(C)CC(O)CC(C)(C)N1O`, the total growth inhibition concentration (TGI) in assay [1], in assay [8], in assay [2], in assay [4], in assay [5] and in assay [6] was above 100 µM throughout. In addition, in assay [7], the TGI is above 100 µM. Besides, the GI50 in assay [8] was above 100 µM.
As to `CCCCCCCCCCCCCCCCCc1nc(Cl)nc(Cl)c1Cl`, the TGI in assay [1], in assay [8], in assay [3], in assay [5], in assay [6] and in assay [7] was above 100 µM in each case.
For `O=c1ccc(N=Nc2ccccc2)ccc1O`, the TGI in assay [1] was above 100 µM; in assay [8] it was 35.3 µM; in assay [2] it was 47.5 µM; in assay [3], 41.1 µM; in assay [5], 26 µM; in assay [6], above 100 µM. Also, in assay [7], the TGI was found to be 25.4 µM.
As for `COc1cccc(/C=C2\N=C(c3ccccc3)OC2=O)c1`, the TGI in assay [1], in assay [8], in assay [2], in assay [3], in assay [5] and in assay [6] was above 100 µM throughout. This compound showed a TGI in assay [7] above 100 µM.
Regarding `O=[N+]([O-])c1ccccc1N=Nc1c(O)[nH]c2c(Cl)cccc12`, the TGI in assay [1] was 59.8 µM; in assay [8], 43.4 µM; in assay [2], above 100 µM; in assay [4], above 68.8 µM; in assay [5], above 66.6 µM; in assay [6], 98.1 µM. Besides, the TGI in assay [7] was above 82.1 µM.
On to `CN1C2C=CC(=O)C1C1C(=O)N(c3ccccc3)C(=O)C12` (centres undefined), for which the GI50 was 3.99 µM in assay [1]; 4.55 µM in assay [8]; 8.12 µM in assay [2]; 0.085 µM in assay [3]; 15.6 µM in assay [4]; 3.57 µM in assay [5]. Further, in assay [7], the GI50 was 11.5 µM. Also, the TGI in assay [1] worked out at 17.3 µM; in assay [8], 22.3 µM; in assay [2], 42 µM; in assay [3], 0.701 µM; in assay [4] it was 29.5 µM; in assay [5], 16.2 µM. This compound gave a TGI in assay [7] of 24.3 µM.
`O=S(=O)(c1ccccc1)N1CCCC(c2ccccc2)CC1` (centres undefined): the TGI in assay [1], in assay [2], in assay [3], in assay [4], in assay [5] and in assay [6] was above 100 µM throughout. Further, the TGI in assay [7] was above 100 µM.
As for `CC(C)=C[C@@H]1C[C@H](C)[C@H]2CC[C@H](C)c3c(O)c(OC4OC(C)C(O)C(O)C4O)c(C)c1c32` (some centres undefined), the GI50 was 16 µM in assay [1]; 11.6 µM in assay [8]; 19.8 µM in assay [2]; 14.8 µM in assay [3]; 12.7 µM in assay [4]; 10.9 µM in assay [5]. In assay [6], the GI50 was 11 µM. Also, the TGI amounted to 31.3 µM in assay [1]; 27.5 µM in assay [8]; 35.5 µM in assay [2]; 28.5 µM in assay [3]; 26.7 µM in assay [4]; 22.9 µM in assay [5]. The TGI in assay [6] is 23.2 µM.
As for `CCOc1ccc2nc(NC(=O)C(=O)C3C(=O)C(CC4C(=O)c5ccccc5C4=O)C(=O)CC3(C)C)sc2c1` (centres undefined), the TGI in assay [1], in assay [8], in assay [2], in assay [3], in assay [5] and in assay [6] was above 100 µM each time. In addition, in assay [7], the TGI is above 100 µM.
